What follows are compounds tested on HBV (assay: HBV-DNA Antiviral Assay Using HepG2.117 Cells (intracellular HBV DNA by qPCR)). Conditions: Hepatitis B virus, HepG2.117.
Format: cell-based, hepatitis B virus (genotype D)
Method: The following assay procedure describes the HBV antiviral assay, using HepG2.117 cells, which carry a stably integrated genotype D HBV genome under the control of a Tet-off promoter, and intracellular HBV DNA quantification as endpoint. Cell viability is assessed in parallel by measuring the intracellular ATP content using ATPlite (Perkin Elmer).
On day 0, HepG2.117 cells (which are maintained in routine cell culture with doxycycline present in the medium at a final concentration of 1 μg/mL) were seeded in 96-well plates (white with clear bottom) at a density of 2.0×10^4 cells/well (0.1 mL/well) in medium without doxycycline to induce pgRNA transcription and subsequent formation of HBV particles. The cells were incubated at 37° C. and 5% CO2.
On day 1, medium was removed from each well, the test articles were diluted in culture medium without doxcycyline and 100 μL was added to cell culture wells (9 concentrations, 4-fold dilution). For each plate, 6 untreated (merely DMSO) wells were included. The final concentration of DMSO in the culture medium was 2%. Each plate was prepared in duplicate (one for HBV DNA extraction, one for ATPlite measurement). The cells were incubated at 37° C. and 5% CO2 for 3 days.
On day 4, cell viability was assessed using ATPlite and cell lysates were prepared for HBV DNA extraction and subsequent quantification by qPCR.
Medium was removed from each well and 100 μL of 0.33% NP-40 in H2O was added to each well. Plates were sealed, incubated at 4° C. for 5 mins, vortexed extensively and centrifuged briefly. Next, 35 μL of lysate was added to 65 μL QuickExtract DNA Extraction Solution (Epicentre) in a PCR plate for each well. PCR plate was incubated at 65° C. for 6 mins, 98° C. for 2 mins and finally cooled to 4° C. HBV DNA was then quantified by qPCR with HBV-specific primers and probes as specified in Table 3 using the Bio-Rad SSOAdvanced Universal Probes Supermix on a CFX96 machine (Bio-Rad). The PCR cycle program consisted of 95° C. for 3 mins, followed by 40 cycles at 95° C. for 10 sec and 60° C. for 30 sec.
A DNA standard was prepared by dilution of an IDT gBlock corresponding to the amplicon with concentrations ranging from 10^2 to 10^8 copies/input (i.e. per 4 μL) and used to generate a standard curve by plotting Cq values vs. HBV DNA standard concentration. The quantity of HBV DNA in each sample was determined by interpolating from the standard curve.
Cell viability was calculated as follows: % Cell viability=(luminescence value of test sample)/(average luminescence value of 2% DMSO control)×100%. HBV DNA inhibition was calculated as follows: 100−(HBV DNA copy number of test sample)/(average HBV DNA copy number of 2% DMSO control)×100%. No normalization to entecavir was required due to the excellent dynamic window of this assay. The CC50, EC50 and EC90 values were determined by dose-response curves fitted by GraphPad Prism using “log (agonist) vs. response—Variable slope”.
`COc1ccc(-n2c(C(=O)NCc3ccccc3)c3n(c2=O)CCN(C(=O)c2ccc(Cl)c(Cl)c2)C3)cc1Cl` [Example 50, N-benzyl-2-(3-chloro-4-methoxy-phenyl)-7-(3,4-dichlorobenzoyl)-3-oxo-6,8-dihydro-5H-imidazo[1,5-a]pyrazine-1-carboxamide] was tested, and the EC50 was greater than 5 µM. Work on `CC(NC(=O)c1c2n(c(=O)n1-c1ccc(OC3CC3)cc1)CCN(C(=O)c1ccc(Br)c(Cl)c1)C2)c1ccccc1` (racemic) [Example 179, 7-(4-bromo-3-chloro-benzoyl)-2-[4-(cyclopropoxy)phenyl]-3-oxo-N-[rac-(1R)-1-phenylethyl]-6,8-dihydro-5H-imidazo[1,5-a]pyrazine-1-carboxamide] yielded an EC50 of 0.1 to 0.5 µM. `NC(=O)c1cccc(-n2c(C(=O)NCc3ccccc3)c3n(c2=O)CCN(C(=O)c2ccc(Br)c(Cl)c2)C3)c1` [Example 35, N-benzyl-7-(4-bromo-3-chloro-benzoyl)-2-(3-carbamoylphenyl)-3-oxo-6,8-dihydro-5H-imidazo[1,5-a]pyrazine-1-carboxamide] gave an EC50 greater than 5 µM. Compound `COc1ccc(-n2c(C(=O)NCc3ccc(F)cc3)c3n(c2=O)CCN(C(=O)c2ccc(Br)c(Cl)c2)C3)cc1` [Example 60, 7-(4-bromo-3-chloro-benzoyl)-N-[(4-fluorophenyl)methyl]-2-(4-methoxyphenyl)-3-oxo-6,8-dihydro-5H-imidazo[1,5-a]pyrazine-1-carboxamide] has an EC50 of 0.1 to 0.5 µM. `COc1ccc(CNC(=O)c2c3n(c(=O)n2-c2ccc(OCC(F)(F)F)cc2)CCN(C(=O)c2ccc(Br)c(Cl)c2)C3)c(-n2cccn2)c1` [Example 258, 7-(4-bromo-3-chloro-benzoyl)-N-[(4-methoxy-2-pyrazol-1-yl-phenyl)methyl]-3-oxo-2-[4-(2,2,2-trifluroethoxy)phenyl]-6,8-dihydro-5H-imidazo[1,5-a]pyrazine-1-carboxamide] showed an EC50 of less than 0.1 µM. `COC(=O)c1cccc(CNC(=O)c2c3n(c(=O)n2-c2ccc(OC)cc2)CCN(C(=O)c2ccc(Br)c(Cl)c2)C3)c1` [Example 165, methyl 3-[[[7-(4-bromo-3-chloro-benzoyl)-2-(4-methoxyphenyl)-3-oxo-6,8-dihydro-5H-imidazo[1,5-a]pyrazine-1-carbonyl]amino]methyl]benzoate] was tested, and the EC50 was 0.1 to 0.5 µM. For `C[C@@H](c1ccccc1)N1C[C@@H](O)Cn2c(c3n(c2=O)CCN(C(=O)c2ccc(Br)c(Cl)c2)C3)C1=O` (stereo in doubt) [Example 237, (11RS)-2-(4-bromo-3-chloro-benzoyl)-11-hydroxy-13-[(1S)-1-phenylethyl]-4,7,9,13-tetrazatricyclo[7.5.0.0^2,7]tetradec-1-ene-8,14-dione], the EC50 was 0.5 to 5 µM. Work on `C[C@@H](Oc1ccc(CNC(=O)c2c3n(c(=O)n2-c2ccc(OC4CC4)cc2)CCN(C(=O)c2ccc(Br)c(Cl)c2)C3)c(F)c1)C(N)=O` (racemic) [Example 406, 7-(4-bromo-3-chloro-benzoyl)-2-[4-(cyclopropoxy)phenyl]-N-[[2-fluoro-4-[rac-(1R)-2-amino-1-methyl-2-oxo-ethoxy]phenyl]methyl]-3-oxo-6,8-dihydro-5H-imidazo[1,5-a]pyrazine-1-carboxamide] yielded an EC50 of 0.1 to 0.5 µM. For `COc1ccc(C(C)NC(=O)c2c3n(c(=O)n2-c2ccc(OC4CC4)cc2)CCN(C(=O)c2ccc(Br)c(Cl)c2)C3)c(F)c1` (racemic) [Example 420, 7-(4-bromo-3-chloro-benzoyl)-2-[4-(cyclopropoxy)phenyl]-3-oxo-N-[rac-(1R)-1-(2-fluoro-4-methoxy-phenyl)ethyl]-6,8-dihydro-5H-imidazo[1,5-a]pyrazine-1-carboxamide], the EC50 was less than 0.1 µM. Compound `C[C@H](NC(=O)c1c2n(c(=O)n1-c1ccc(OCC(F)(F)F)cc1)CCN(C(=O)c1ccc(Br)c(Cl)c1)C2)c1ccc(OC(F)F)cc1F` (stereo in doubt) [Example 318, 7-(4-bromo-3-chloro-benzoyl)-3-oxo-N-[rac-(1S)-1-[4-(difluoromethoxy)-2-fluoro-phenyl]ethyl]-2-[4-(2,2,2-trifluoroethoxy)phenyl]-6,8-dihydro-5H-imidazo[1,5-a]pyrazine-1-carboxamide] has an EC50 of 0.1 to 0.5 µM. `COc1ccc(-n2c(C(=O)NCC(C)C)c3n(c2=O)CCN(C(=O)c2ccc(Cl)c(Cl)c2)C3)cc1` [Example 58, 7-(3,4-dichlorobenzoyl)-N-isobutyl-2-(4-methoxyphenyl)-3-oxo-6,8-dihydro-5H-imidazo[1,5-a]pyrazine-1-carboxamide] was tested, and the EC50 was greater than 5 µM. `COc1ccc(-n2c(C(=O)NCc3ccc4ncccc4c3)c3n(c2=O)CCN(C(=O)c2ccc(Cl)c(Cl)c2)C3)cc1` [Example 92, 7-(3,4-dichlorobenzoyl)-2-(4-methoxyphenyl)-3-oxo-N-(6-quinolylmethyl)-6,8-dihydro-5H-imidazo[1,5-a]pyrazine-1-carboxamide] was tested, and the EC50 was 0.5 to 5 µM. Work on `CCOC(=O)Cc1ccc(CNC(=O)c2c3n(c(=O)n2-c2ccc(OC)cc2)CCN(C(=O)c2ccc(Br)c(Cl)c2)C3)cc1` [Example 196, ethyl 2-[4-[[[7-(4-bromo-3-chloro-benzoyl)-2-(4-methoxyphenyl)-3-oxo-6,8-dihydro-5H-imidazo[1,5-a]pyrazine-1-carbonyl]amino]methyl]phenyl]acetate] yielded an EC50 greater than 5 µM. `COCCOc1ccc(-n2c(C(=O)NCc3ccccc3)c3n(c2=O)CCN(C(=O)c2ccc(Br)c(Cl)c2)C3)cc1` [Example 250, N-benzyl-7-(4-bromo-3-chloro-benzoyl)-2-[4-(2-methoxyethoxy)phenyl]-3-oxo-6,8-dihydro-5H-imidazo[1,5-a]pyrazine-1-carboxamide] gave an EC50 of 0.1 to 0.5 µM. `COc1ccc(-n2c(C(=O)NCc3ccc(C)c(OC)c3)c3n(c2=O)CCN(C(=O)c2ccc(Cl)c(Cl)c2)C3)cc1` [Example 90, 7-(3,4-dichlorobenzoyl)-N-[(3-methoxy-4-methyl-phenyl)methyl]-2-(4-methoxyphenyl)-3-oxo-6,8-dihydro-5H-imidazo[1,5-a]pyrazine-1-carboxamide] showed an EC50 of 0.5 to 5 µM. `O=C(NCc1ccccc1-n1cccn1)c1c2n(c(=O)n1-c1ccc(OC3CC3)cc1)CCN(C(=O)c1ccc(Br)c(Cl)c1)C2` [Example 457, 7-(4-bromo-3-chloro-benzoyl)-2-[4-(cyclopropoxy)phenyl]-3-oxo-N-[(2-pyrazol-1-ylphenyl)methyl]-6,8-dihydro-5H-imidazo[1,5-a]pyrazine-1-carboxamide] gave an EC50 of less than 0.1 µM. In the case of `O=C(NCc1ccccc1-n1cc(F)cn1)c1c2n(c(=O)n1-c1ccc(OCC(F)(F)F)cc1)CCN(C(=O)c1ccc(Br)c(Cl)c1)C2` [Example 327, 7-(4-bromo-3-chloro-benzoyl)-N-[[2-(4-fluoropyrazol-1-yl)phenyl]methyl]-3-oxo-2-[4-(2,2,2-trifluoroethoxy)phenyl]-6,8-dihydro-5H-imidazo[1,5-a]pyrazine-1-carboxamide], the EC50 is reported as less than 0.1 µM. `CC(C)CN1CCCn2c(c3n(c2=O)CCN(C(=O)c2ccc(Br)c(Cl)c2)C3)C1=O` [Example 134, 4-(4-bromo-3-chloro-benzoyl)-13-isobutyl-4,7,9,13-tetrazatricyclo[7.5.0.0^2,7]tetradec-1-ene-8.14-dione] gave an EC50 greater than 5 µM. In the case of `CC(NC(=O)c1c2n(c(=O)n1-c1ccc(OC3CC3)cc1)CCN(C(=O)c1ccc(Br)c(Cl)c1)C2)c1ccc(OC(F)F)cc1F` (racemic) [Example 314, 7-(4-bromo-3-chloro-benzoyl)-2-[4-(cyclopropoxy)phenyl]-3-oxo-N-[rac-(1S)-1-[4-(difluoromethoxy)-2-fluoro-phenyl]ethyl]-6,8-dihydro-5H-imidazo[1,5-a]pyrazine-1-carboxamide], the EC50 is reported as 0.1 to 0.5 µM.

Reference: US11591341B2 (ALIGOS THERAPEUTICS, INC., priority 2019, dated 2023)
